The values that follow come from ChEMBL document CHEMBL4387741, “Optimization of novel reversible Bruton's tyrosine kinase inhibitors identified using Tethering-fragment-based screens” (Bioorg Med Chem, 2019).

Experiment [1] deals with Phosphatidylinositol 4-phosphate 5-kinase type-1 gamma (Homo sapiens) (UniProt O60331). The experiment in a line: Inhibition of wild-type human partial length PIP5K1C (M1 to T668 residues) expressed in mammalian expression system at 1 uM by Kinomescan method relative to control.
Experiment [2] deals with High affinity nerve growth factor receptor (Homo sapiens) (UniProt P04629). Nature of the experiment: Inhibition of wild-type human partial length TRKA (G475 to G790 residues) expressed in mammalian expression system at 1 uM by Kinomescan method relative to control.
The target in experiment [3] is Serine/threonine-protein kinase Chk1 (Homo sapiens) (UniProt O14757). Nature of the experiment: Inhibition of wild-type human partial length CHEK1 (M1 to G289 residues) expressed in bacterial expression system at 1 uM by Kinomescan method relative to control.
Experiment [4] deals with Calcium/calmodulin-dependent protein kinase type IV (Homo sapiens) (UniProt Q16566). Nature of the experiment: Inhibition of wild-type human partial length CAMK4 (A22 to A322 residues) expressed in bacterial expression system at 1 uM by Kinomescan method relative to control.
For experiment [5], the target named is Fibroblast growth factor receptor 2 (Homo sapiens) (UniProt P21802). The experiment in a line: Inhibition of wild-type human partial length FGFR2 (D457 to E769 residues) expressed in bacterial expression system at 1 uM by Kinomescan method relative to control.
Experiment [6] concerns the target cGMP-dependent protein kinase 2 (Homo sapiens) (UniProt Q13237). The experiment in a line: Inhibition of wild-type human partial length PRKG2 (S422 to F762 residues) expressed in mammalian expression system at 1 uM by Kinomescan method relative to control.
Experiment [7] addresses Ephrin type-B receptor 1 (Homo sapiens) (UniProt P54762). The experiment in a line: Inhibition of wild-type human partial length EPHB1 (P589 to T911 residues) expressed in bacterial expression system at 1 uM by Kinomescan method relative to control.
In experiment [8] the target is Serine/threonine-protein kinase 4 (Homo sapiens) (UniProt Q13043). The experiment in a line: Inhibition of wild-type human full length MST1 (M1 to F487 residues) expressed in bacterial expression system at 1 uM by Kinomescan method relative to control.
Sequence of Serine/threonine-protein kinase 4 (Homo sapiens) (Q13043 whole entry, the tested form may be a part): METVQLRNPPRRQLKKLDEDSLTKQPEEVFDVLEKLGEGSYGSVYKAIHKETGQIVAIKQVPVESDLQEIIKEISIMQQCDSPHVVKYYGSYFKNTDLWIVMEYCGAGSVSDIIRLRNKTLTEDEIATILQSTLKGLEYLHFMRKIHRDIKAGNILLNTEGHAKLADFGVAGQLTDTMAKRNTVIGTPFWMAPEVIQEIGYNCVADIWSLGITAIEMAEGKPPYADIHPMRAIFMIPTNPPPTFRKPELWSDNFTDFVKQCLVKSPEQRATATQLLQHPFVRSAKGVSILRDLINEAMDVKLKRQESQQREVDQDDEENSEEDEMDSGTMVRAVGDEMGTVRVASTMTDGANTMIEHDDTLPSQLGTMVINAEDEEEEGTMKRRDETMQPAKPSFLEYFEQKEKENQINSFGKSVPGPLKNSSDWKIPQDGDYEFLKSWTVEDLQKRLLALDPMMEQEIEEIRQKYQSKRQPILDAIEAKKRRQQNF
In experiment [9] the target is Serine/threonine-protein kinase PAK 2 (Homo sapiens) (UniProt Q13177). The experiment in a line: Inhibition of wild-type human partial length PAK2 (P151 to R525 residues) expressed in bacterial expression system at 1 uM by Kinomescan method relative to control.
For experiment [10], the target named is Ribosomal protein S6 kinase alpha-4 (Homo sapiens) (UniProt O75676). The experiment in a line: Inhibition of wild-type human partial length N-terminal RPS6KA4 kinase domain 1 expressed in bacterial expression system at 1 uM by Kinomescan method relative to control.
Experiment [11] deals with Serine/threonine-protein kinase N2 (Homo sapiens) (UniProt Q16513). Nature of the experiment: Inhibition of wild-type human partial length PKN2 (E634 to C984 residues) expressed in bacterial expression system at 1 uM by Kinomescan method relative to control.
For experiment [12], the target named is Tyrosine-protein kinase ABL1 (Homo sapiens) (UniProt P00519). The experiment in a line: Inhibition of wild-type human non-phosphorylated ABL1 (S229 to K512 residues) expressed in mammalian expression system at 1 uM by Kinomescan method relative to control.
Experiment [13] deals with Cyclin-dependent kinase 16 (Homo sapiens) (UniProt Q00536). Nature of the experiment: Inhibition of wild-type human partial length PCTK1 (G160 to A474 residues) expressed in mammalian expression system at 1 uM by Kinomescan method relative to control.
Sequence of Cyclin-dependent kinase 16 (Homo sapiens) (Q00536 whole entry, the tested form may be a part): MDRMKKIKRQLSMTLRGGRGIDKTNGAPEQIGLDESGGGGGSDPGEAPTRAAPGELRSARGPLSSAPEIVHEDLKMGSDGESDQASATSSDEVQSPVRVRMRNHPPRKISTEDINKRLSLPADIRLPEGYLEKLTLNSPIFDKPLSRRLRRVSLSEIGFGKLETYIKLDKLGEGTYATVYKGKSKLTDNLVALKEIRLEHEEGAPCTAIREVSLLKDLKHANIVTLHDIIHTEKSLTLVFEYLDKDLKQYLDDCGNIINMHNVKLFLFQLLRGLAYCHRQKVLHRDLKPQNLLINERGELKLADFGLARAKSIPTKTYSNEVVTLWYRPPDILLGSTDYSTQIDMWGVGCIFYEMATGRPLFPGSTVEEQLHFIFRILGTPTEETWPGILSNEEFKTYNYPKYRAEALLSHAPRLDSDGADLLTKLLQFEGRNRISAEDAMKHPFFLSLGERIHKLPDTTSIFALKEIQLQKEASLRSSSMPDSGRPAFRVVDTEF
In experiment [14] the target is Membrane-associated tyrosine- and threonine-specific cdc2-inhibitory kinase (Homo sapiens) (UniProt Q99640). Nature of the experiment: Inhibition of wild-type human partial length PKMYT1 (A88 to G366 residues) expressed in bacterial expression system at 1 uM by Kinomescan method relative to control.
Experiment [15] addresses Serine/threonine-protein kinase B-raf (Homo sapiens) (UniProt P15056). Nature of the experiment: Inhibition of wild-type human partial length BRAF (S429 to E741 residues) expressed in mammalian expression system at 10 uM by Kinomescan method relative to control.
Experiment [16] has as its target Protein kinase C delta type (Homo sapiens) (UniProt Q05655). The experiment in a line: Inhibition of wild-type human partial length PRKCD (Q328 to D676 residues) expressed in bacterial expression system at 10 uM by Kinomescan method relative to control.
The target of experiment [17] is Dual specificity protein kinase TTK (Homo sapiens) (UniProt P33981). The experiment in a line: Inhibition of wild-type human partial length TTK (N505 to V798 residues) expressed in bacterial expression system at 10 uM by Kinomescan method relative to control.
In experiment [18] the target is MAP kinase-activated protein kinase 2 (Homo sapiens) (UniProt P49137). The experiment in a line: Inhibition of wild-type human partial length MAPKAPK2 (V48 to D345 residues) expressed in bacterial expression system at 10 uM by Kinomescan method relative to control.
For experiment [19], the system named is Tyrosine-protein kinase ABL1 (Homo sapiens), P00519 [H396P]. Nature of the experiment: Inhibition of human non-phosphorylated ABL1 H396P mutant (S229 to K512 residues) expressed in mammalian expression system at 10 uM by Kinomescan method relative to control.
Experiment [20] deals with Cyclin-dependent kinase-like 3 (Homo sapiens) (UniProt Q8IVW4). The experiment in a line: Inhibition of wild-type human partial length CDKL3 (M1 to D327 residues) expressed in bacterial expression system at 10 uM by Kinomescan method relative to control.
Experiment [21] addresses Serine/threonine-protein kinase OSR1 (Homo sapiens) (UniProt O95747). The experiment in a line: Inhibition of wild-type human full length OSR1 (M1 to S527 residues) expressed in mammalian expression system at 10 uM by Kinomescan method relative to control.
For experiment [22], the target named is Activin receptor type-2A (Homo sapiens) (UniProt P27037). Nature of the experiment: Inhibition of wild-type human ACVR2A (V171 to T499 residues) expressed in bacterial expression system at 10 uM by Kinomescan method relative to control.
Sequence of Activin receptor type-2A (Homo sapiens) (P27037 whole entry, the tested form may be a part): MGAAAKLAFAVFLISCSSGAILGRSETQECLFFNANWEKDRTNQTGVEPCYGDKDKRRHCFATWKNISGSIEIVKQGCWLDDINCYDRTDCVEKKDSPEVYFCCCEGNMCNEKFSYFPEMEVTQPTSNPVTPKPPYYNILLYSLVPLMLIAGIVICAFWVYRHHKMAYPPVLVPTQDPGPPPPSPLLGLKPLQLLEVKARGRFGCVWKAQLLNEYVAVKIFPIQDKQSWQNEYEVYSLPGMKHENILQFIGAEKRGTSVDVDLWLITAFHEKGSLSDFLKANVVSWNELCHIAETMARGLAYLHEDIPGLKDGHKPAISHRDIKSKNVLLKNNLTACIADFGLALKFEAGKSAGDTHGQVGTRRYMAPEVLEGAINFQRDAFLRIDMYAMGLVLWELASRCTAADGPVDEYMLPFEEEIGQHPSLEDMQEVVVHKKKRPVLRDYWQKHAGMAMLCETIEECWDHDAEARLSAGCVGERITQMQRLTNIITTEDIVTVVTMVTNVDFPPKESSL
Experiment [23] has as its target Mitogen-activated protein kinase 9 (Homo sapiens) (UniProt P45984). Nature of the experiment: Inhibition of wild-type human full length JNK2 (M1 to Q382 residues) expressed in mammalian expression system at 10 uM by Kinomescan method relative to control.
For experiment [24], the target named is Macrophage colony-stimulating factor 1 receptor (Homo sapiens) (UniProt P07333). The experiment in a line: Inhibition of wild-type human partial length CSF1R (I564 to S939 residues) expressed in bacterial expression system at 10 uM by Kinomescan method relative to control.
The target in experiment [25] is Ephrin type-B receptor 6 (Homo sapiens) (UniProt O15197). The experiment in a line: Inhibition of wild-type human partial length EPHB6 (Q634 to P948 residues) expressed in mammalian expression system at 10 uM by Kinomescan method relative to control.
Experiment [26] addresses Homeodomain-interacting protein kinase 1 (Homo sapiens) (UniProt Q86Z02). The experiment in a line: Inhibition of wild-type human partial length HIPK1 (M146 to I555 residues) expressed in mammalian expression system at 10 uM by Kinomescan method relative to control.
In experiment [27] the target is Serine/threonine-protein kinase WNK3 (Homo sapiens) (UniProt Q9BYP7). The experiment in a line: Inhibition of wild-type human partial length WNK3 (M1 to D434 residues) expressed in mammalian expression system at 10 uM by Kinomescan method relative to control.

Sequence of Ephrin type-B receptor 1 (Homo sapiens) (P54762 whole entry, the tested form may be a part): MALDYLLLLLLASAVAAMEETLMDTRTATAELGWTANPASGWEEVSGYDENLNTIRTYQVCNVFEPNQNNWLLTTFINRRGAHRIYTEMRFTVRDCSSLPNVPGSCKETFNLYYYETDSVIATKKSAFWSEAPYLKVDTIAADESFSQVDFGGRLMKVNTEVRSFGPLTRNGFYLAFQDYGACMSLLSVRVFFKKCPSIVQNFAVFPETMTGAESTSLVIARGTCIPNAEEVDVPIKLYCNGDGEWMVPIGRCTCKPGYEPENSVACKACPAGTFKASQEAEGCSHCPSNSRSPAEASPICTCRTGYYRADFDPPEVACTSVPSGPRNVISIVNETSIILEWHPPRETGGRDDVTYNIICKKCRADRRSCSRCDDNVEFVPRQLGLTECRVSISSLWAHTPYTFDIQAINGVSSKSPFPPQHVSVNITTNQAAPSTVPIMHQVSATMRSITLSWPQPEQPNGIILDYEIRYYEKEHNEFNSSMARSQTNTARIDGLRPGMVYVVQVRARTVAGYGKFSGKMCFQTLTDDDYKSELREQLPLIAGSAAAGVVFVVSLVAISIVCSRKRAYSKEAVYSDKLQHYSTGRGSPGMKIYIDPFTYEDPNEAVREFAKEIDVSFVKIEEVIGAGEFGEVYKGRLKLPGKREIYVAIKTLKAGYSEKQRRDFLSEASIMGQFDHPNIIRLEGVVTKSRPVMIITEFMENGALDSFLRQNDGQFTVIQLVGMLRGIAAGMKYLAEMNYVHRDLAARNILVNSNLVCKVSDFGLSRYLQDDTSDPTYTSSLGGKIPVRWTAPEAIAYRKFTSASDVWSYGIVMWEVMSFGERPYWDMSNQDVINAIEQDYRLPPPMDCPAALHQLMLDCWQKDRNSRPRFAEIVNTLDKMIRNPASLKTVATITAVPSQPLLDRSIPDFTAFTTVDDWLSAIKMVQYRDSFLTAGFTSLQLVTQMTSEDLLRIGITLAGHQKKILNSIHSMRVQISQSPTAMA
Sequence of cGMP-dependent protein kinase 2 (Homo sapiens) (Q13237 whole entry, the tested form may be a part): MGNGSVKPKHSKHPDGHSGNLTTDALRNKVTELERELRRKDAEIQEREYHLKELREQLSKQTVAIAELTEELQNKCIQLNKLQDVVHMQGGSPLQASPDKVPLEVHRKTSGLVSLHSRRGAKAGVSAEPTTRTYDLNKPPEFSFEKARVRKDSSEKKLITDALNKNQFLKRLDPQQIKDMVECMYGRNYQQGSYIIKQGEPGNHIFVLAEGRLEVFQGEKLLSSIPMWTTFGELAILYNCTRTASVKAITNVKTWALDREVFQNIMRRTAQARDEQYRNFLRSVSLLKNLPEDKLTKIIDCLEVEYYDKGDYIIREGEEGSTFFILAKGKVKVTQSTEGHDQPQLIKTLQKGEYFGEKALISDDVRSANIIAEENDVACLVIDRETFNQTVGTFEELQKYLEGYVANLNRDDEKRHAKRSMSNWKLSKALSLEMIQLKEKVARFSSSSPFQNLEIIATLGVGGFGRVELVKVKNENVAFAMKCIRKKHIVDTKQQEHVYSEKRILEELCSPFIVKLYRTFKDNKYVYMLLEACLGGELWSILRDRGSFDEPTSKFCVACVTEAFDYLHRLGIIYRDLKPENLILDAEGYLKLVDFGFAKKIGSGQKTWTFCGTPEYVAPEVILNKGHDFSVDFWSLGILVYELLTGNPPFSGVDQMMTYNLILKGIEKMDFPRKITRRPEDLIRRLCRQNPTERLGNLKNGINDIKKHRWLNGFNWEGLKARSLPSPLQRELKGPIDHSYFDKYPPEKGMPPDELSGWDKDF
Sequence of Protein kinase C delta type (Homo sapiens) (Q05655 whole entry, looked up, the tested form may be a part): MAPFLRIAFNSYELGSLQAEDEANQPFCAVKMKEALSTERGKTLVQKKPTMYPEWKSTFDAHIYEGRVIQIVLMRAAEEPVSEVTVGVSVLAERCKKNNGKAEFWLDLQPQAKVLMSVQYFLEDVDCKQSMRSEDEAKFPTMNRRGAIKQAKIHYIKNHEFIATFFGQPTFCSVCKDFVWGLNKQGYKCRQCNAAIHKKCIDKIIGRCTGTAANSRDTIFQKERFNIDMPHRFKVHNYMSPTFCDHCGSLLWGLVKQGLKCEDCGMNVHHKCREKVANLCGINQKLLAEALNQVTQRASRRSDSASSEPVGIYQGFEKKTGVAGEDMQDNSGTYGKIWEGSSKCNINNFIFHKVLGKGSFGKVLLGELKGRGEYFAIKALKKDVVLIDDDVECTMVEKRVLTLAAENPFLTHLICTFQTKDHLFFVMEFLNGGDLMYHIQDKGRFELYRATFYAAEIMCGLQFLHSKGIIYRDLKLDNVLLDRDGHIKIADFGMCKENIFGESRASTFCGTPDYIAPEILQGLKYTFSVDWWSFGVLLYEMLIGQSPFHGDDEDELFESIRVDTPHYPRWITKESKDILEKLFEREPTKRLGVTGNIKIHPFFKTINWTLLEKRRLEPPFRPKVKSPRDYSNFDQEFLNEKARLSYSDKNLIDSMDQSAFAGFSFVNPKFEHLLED
Sequence of Serine/threonine-protein kinase B-raf (Homo sapiens) (P15056 whole entry, the tested form may be a part): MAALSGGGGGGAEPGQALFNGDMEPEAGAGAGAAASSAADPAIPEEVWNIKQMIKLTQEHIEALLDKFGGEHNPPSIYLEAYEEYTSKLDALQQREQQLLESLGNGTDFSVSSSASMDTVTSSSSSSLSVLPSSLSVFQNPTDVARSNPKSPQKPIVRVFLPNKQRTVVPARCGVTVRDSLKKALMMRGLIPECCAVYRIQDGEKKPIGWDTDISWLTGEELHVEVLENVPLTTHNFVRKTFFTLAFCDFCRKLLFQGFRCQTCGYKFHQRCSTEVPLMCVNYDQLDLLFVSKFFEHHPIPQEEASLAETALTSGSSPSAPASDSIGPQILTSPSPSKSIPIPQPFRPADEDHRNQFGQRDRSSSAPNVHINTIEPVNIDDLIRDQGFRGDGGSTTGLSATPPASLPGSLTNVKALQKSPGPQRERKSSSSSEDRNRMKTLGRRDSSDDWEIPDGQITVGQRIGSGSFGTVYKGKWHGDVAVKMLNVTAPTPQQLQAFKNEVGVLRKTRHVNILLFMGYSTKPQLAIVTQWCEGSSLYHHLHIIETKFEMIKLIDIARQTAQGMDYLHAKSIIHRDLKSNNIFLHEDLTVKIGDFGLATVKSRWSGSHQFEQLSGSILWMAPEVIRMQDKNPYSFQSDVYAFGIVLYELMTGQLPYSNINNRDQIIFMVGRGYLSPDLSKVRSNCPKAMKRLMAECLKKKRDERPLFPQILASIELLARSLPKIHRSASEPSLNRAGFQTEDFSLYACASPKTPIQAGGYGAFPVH

Take `O=C(Nc1cccc([C@@H]2CN(c3ncnc4[nH]ccc34)CCN2CCO)c1)Nc1c(F)cccc1N1CCCC1`: the inhibition (usually the share of the control response that was lost under treatment) turned out to be 70% in experiment [1]; 56% in experiment [2]; 99% in experiment [3]; 100% in experiment [4]; 54% in [5]; 100% in [6]. Also, the inhibition in experiment [7] amounted to 97%; in experiment [8], 78%; in experiment [9], 87%; in experiment [10] it was 94%; in experiment [11] it was 75%; in experiment [12] it was 61%. Further, the inhibition was 80% in [13] and 84% in experiment [14].

On to `O=C(Nc1cccc([C@H]2CCCN(c3ncnc4[nH]ccc34)C2)c1)Nc1ccccc1N1CCCC1`, for which the inhibition in experiment [15] was determined as 35%; in experiment [16], 100%; in experiment [17] it was 78%; in experiment [18] it was 100%; in [19], 12%; in experiment [20], 97%. Besides, the inhibition in experiment [21] was determined as 81%; in experiment [22], 100%; in experiment [23], 81%; in experiment [24], 20%; in experiment [25] it was 8.6%; in experiment [26] it was 61%. The compound also registered an inhibition in experiment [27] of 61%.
